This is an account of results in PMC3909768 (Journal of Cancer, 2014).

Values joined by “and” are separate entries in the source; they are usually repeats but may differ in a detail not shown here. Equal entries are not always repeated.

Series [1] is described as follows: Brain and prostate distribution after single IV in rats. The following applies: rat, in vivo.
A further series relates to CYP3A. The series can be described thus: CYP3A induction in human hepatocytes. Format: in vitro ADME. The following applies: for CYP3A induction, in words: 1uM; for CYP 3A induction, Positive control, %: human hepatocytes, 48 hours.
The next series addresses GABA receptors. The following applies: read-out: IC50, GABA receptors; ref [6]; cited from earlier work.
The next series has as its system LnCaP-Z2 tumors. The series can be described thus: LnCaP-Z2 xenograft antitumor efficacy. Format: in vivo, male CB17-SCID mice. The following applies: 50 mg/kg once daily.
The nature of series [2]: Drug concentration in plasma and xenograft tumor after 21-day dosing. The following applies: male, CB17-SCID, mouse, in vivo.
Series [3] in a line: Plasma protein binding by equilibrium dialysis, rat. Format: in vitro ADME. The following applies: Rats plasma, 1 uM, equilibrium dialysis 4h 37C. (In general: In equilibrium dialysis free small molecules cross a membrane that holds back macromolecules.)
Series [4] is described as follows: Plasma protein binding by equilibrium dialysis, dog. Format: in vitro ADME. The following applies: Dogs plasma, 1 uM, equilibrium dialysis 4h 37C.
A short description of series [5]: Plasma protein binding by equilibrium dialysis, human. Format: in vitro ADME. The following applies: 1 uM, equilibrium dialysis 4h 37C.
The mark [6] stands for this setting: 1 mg/kg, Prostate, single IV 1 mg/kg.
[7] abbreviates: 1 mg/kg, brain, single IV 1 mg/kg.
Where [8] appears, read: 1 mg/kg, plasma, single IV 1 mg/kg.
[9] abbreviates: 2 mg/kg, Prostate, single IV 2 mg/kg.
[10] abbreviates: 2 mg/kg, brain, single IV 2 mg/kg.
Setting [11] is: 2 mg/kg, plasma, single IV 2 mg/kg.

In turn, `CNC(=O)c1ccc(N2C(=S)N(c3cnc(C#N)c(C(F)(F)F)c3)C(=O)C23CCC3)cc1F` [ARN-509] displayed a Kp at 30 min in series [1] (1 mg/kg) of 1.94 ± 0.24. Further, the Kp at 120 min in series [1] (1 mg/kg) amounted to 3.15 ± 0.94. The results for the concentration at 30 min in series [1] (setting [6]), in series [1] (setting [7]) and in series [1] (setting [8]) were 487 ± 73 ng/g, 241 ± 21 ng/g and 251 ± 29 ng/mL, respectively. The concentration at 120 min in series [1] (setting [6]) is 482 ± 120 ng/g; in series [1] (setting [7]) it was 176 ± 31 ng/g; in series [1] (setting [8]), 153 ± 10 ng/mL. Also, the “CYP3A induction, in words” value with CYP3A is “still active”. Besides, the “CYP 3A induction, Positive control, %” value in the series on CYP3A (1 uM) came out at 16.3±2.5%; with CYP3A (10 uM), 102.7±13.0%. Also, the IC50 on GABA receptors was 3000 nM.

On to `CC(O)(CS(=O)(=O)c1ccc(F)cc1)C(=O)Nc1ccc(C#N)c(C(F)(F)F)c1` (stereo not drawn) [Bicalutamide, reference compound], for which the “antitumor efficacy, in words” value in the series with LnCaP-Z2 tumors is on record as “less effective”. Besides, in series [2] (50 mg/kg), the Kp at 24 h amounted to 2.5 ± 1.36; the concentration at 24 h was 3250 ng/mL and 8740 ng/g.

`CNC(=O)c1ccc(N2C(=S)N(c3ccc(C#N)c(C(F)(F)F)c3)C(=O)C2(C)C)cc1F` [MDV3100]: the values for the Bound fraction in series [3], in series [4] and in series [5] were 96.4%, 97.3% and 98.4%, respectively. Moreover, the Kp at 30 min in series [1] (2 mg/kg) was 0.39 ± 0.03. The compound further registered a Kp at 120 min in series [1] (2 mg/kg) of 0.33 ± 0.16. Also, the values for the concentration at 30 min in series [1] (setting [9]), in series [1] (setting [10]) and in series [1] (setting [11]) were 102 ± 4 ng/g, 164 ± 19 ng/g and 263 ± 19 ng/mL, respectively. In addition, the values for the concentration at 120 min in series [1] (setting [9]), in series [1] (setting [10]) and in series [1] (setting [11]) were 124 ± 27 ng/g, 152 ± 31 ng/g and 377 ± 153 ng/mL, respectively. Besides, the “CYP3A induction, in words” value in the series on CYP3A is reported as “still active”. The “CYP 3A induction, Positive control, %” value stood at 10.0±2.0% in the series on CYP3A (1 uM) and 73.3±6.8% with CYP3A (10 uM). In addition, in series [2] (10 mg/kg), the Kp at 24 h is 0.53 ± 0.15.

As usually defined, the IC50 is the concentration that inhibits the measured activity by half.
